From ChEMBL document CHEMBL1909046, “DrugMatrix in vitro pharmacology data”
Where a SMILES comes first, the peptide text is derived from it. Bridges are numbered along the chain shown (N, C = ends). [ ]: non-standard residue; d: D form. The star is where a group is joined. Threoninol(2S,3R) = C[C@@H](O)[C@H](CO)N*

Key:
Caspase-1 = biological target: T1, Caspase-1 (Homo sapiens, UniProt P29466); parameters: species or system Escherichia coli;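 also: Caspase-1 enzyme inhibition assay with a peptide substrate; in other assays of this panel Not Active means under 50% inhibition at 10 µM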
T1 sequence (P29466 whole entry): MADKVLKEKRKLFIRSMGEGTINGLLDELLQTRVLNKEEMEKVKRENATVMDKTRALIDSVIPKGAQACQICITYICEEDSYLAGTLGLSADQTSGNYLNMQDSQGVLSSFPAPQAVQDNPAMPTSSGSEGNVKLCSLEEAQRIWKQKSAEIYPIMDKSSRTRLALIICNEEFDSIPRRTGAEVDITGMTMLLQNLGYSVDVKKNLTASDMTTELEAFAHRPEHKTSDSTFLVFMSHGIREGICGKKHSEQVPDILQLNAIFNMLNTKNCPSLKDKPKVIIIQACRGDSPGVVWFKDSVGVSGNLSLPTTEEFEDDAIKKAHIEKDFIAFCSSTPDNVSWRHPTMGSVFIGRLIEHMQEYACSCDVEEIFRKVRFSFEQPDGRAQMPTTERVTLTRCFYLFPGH

[1] = DRUGMATRIX: Phosphodiesterase PDE4 enzyme inhibition (substrate: [3H]cAMP + cAMP); conditions: u-937; Not Active = under 50% inhibition at 10 µM
[2] = biological target: T2, Cholecystokinin receptor type A (Homo sapiens, UniProt P32238); assay type: cell membranes, Membrane; conditions: 1321-n1; also: in other assays of this panel Not Active means under 50% inhibition at 10 µM
T2 sequence (P32238 whole entry): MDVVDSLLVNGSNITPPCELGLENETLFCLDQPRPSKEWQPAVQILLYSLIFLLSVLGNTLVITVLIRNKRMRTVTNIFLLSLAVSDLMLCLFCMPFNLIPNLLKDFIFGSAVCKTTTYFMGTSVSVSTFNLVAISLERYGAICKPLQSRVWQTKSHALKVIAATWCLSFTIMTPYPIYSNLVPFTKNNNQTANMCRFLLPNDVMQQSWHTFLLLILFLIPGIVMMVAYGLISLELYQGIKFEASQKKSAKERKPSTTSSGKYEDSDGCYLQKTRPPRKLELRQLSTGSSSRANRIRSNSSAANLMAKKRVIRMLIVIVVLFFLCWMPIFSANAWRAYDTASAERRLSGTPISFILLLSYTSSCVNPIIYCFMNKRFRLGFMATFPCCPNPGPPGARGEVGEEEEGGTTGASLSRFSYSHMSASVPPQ

Cannabinoid receptor 1 = Cannabinoid receptor 1 (Homo sapiens, UniProt P21554); assay type: cell membranes, Chem-1, Membrane; conditions: chem-1; also: in other assays of this panel Not Active means under 50% inhibition at 10 µM
Cannabinoid receptor 1, sequence (P21554 whole entry): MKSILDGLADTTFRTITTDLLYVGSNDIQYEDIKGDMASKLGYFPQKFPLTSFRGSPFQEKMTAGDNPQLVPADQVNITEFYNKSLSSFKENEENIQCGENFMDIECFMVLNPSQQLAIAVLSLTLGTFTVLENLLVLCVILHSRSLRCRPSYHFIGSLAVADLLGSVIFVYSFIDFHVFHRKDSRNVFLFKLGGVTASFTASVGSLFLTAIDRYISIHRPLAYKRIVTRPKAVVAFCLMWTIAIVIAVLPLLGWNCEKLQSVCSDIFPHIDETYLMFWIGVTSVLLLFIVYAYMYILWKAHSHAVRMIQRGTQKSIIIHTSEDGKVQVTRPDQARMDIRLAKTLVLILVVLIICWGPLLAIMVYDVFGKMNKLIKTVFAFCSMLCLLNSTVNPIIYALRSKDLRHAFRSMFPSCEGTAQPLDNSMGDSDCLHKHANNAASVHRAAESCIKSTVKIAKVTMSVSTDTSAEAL

Cytochrome P450 2A6 = biological target: T3, Cytochrome P450 2A6 (Homo sapiens, UniProt P11509); conditions: bti-tn-5b1-4; also: in other assays of this panel Not Active means under 50% inhibition at 10 µM
T3 sequence (P11509 whole entry): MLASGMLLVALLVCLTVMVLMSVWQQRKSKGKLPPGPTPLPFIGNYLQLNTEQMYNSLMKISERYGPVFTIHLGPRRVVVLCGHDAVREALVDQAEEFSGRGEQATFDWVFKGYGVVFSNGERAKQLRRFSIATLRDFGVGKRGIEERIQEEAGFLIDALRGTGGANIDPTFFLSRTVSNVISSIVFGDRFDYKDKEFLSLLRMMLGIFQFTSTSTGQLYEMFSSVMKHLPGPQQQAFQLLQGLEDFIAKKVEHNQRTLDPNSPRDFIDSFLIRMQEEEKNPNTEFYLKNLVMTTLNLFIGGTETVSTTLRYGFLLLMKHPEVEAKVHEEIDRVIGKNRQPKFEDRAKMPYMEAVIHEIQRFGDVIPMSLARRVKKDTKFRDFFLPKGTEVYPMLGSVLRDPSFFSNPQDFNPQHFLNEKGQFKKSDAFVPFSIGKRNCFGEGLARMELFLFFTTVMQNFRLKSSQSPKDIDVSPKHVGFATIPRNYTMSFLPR

D(3) dopamine receptor = D(3) dopamine receptor (Homo sapiens, UniProt P35462); assay: DRUGMATRIX: Dopamine D3 radioligand binding (ligand: [3H] Spiperone); assay type: cell membranes, CHO, Membrane; conditions: cho
D(3) dopamine receptor, sequence (P35462 whole entry): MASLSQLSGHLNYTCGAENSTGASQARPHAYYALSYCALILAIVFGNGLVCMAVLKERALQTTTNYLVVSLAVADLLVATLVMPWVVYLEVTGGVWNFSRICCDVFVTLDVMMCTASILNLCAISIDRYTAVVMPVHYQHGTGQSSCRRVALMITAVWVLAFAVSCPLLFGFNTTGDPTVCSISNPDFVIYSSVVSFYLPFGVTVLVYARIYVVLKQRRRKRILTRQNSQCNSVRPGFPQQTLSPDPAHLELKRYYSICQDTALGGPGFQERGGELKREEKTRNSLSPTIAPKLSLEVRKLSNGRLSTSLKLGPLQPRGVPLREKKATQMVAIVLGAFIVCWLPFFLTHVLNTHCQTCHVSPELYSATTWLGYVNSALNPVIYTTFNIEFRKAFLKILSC

[3] = DRUGMATRIX: Phorbol Ester radioligand binding (ligand: [3H] PDBu); assay type: cell membranes, Mus musculus, ICR, Brain, Membrane; conditions: Not Active = under 50% inhibition at 10 µM

COc1ccccc1C(=O)N1CCC(Cc2ccccc2)CC1
Not Active: IC50 (Caspase-1) | IC50 [1] | Ki [1] | IC50 [2] | IC50 (Cannabinoid receptor 1) | IC50 (Cytochrome P450 2A6) | Ki (Cytochrome P450 2A6) | IC50 (D(3) dopamine receptor) | IC50 [3] | Ki [3]

Cc1ccccc1C(=O)N1CCC(Cc2ccccc2)CC1
Not Active: IC50 (Caspase-1) | IC50 [1] | Ki [1] | IC50 [2] | IC50 (Cannabinoid receptor 1) | IC50 (Cytochrome P450 2A6) | Ki (Cytochrome P450 2A6) | IC50 (D(3) dopamine receptor) | IC50 [3] | Ki [3]

O=C1CC[C@H](N2C(=O)c3ccccc3C2=O)C(=O)N1
Not Active: IC50 (Caspase-1) | IC50 [1] | Ki [1] | IC50 [2] | IC50 (Cannabinoid receptor 1) | IC50 (Cytochrome P450 2A6) | Ki (Cytochrome P450 2A6) | IC50 (D(3) dopamine receptor) | IC50 [3] | Ki [3]

N=C(Nc1ccccc1)Nc1ccccc1
Not Active: IC50 (Caspase-1) | IC50 [1] | Ki [1] | IC50 [2] | IC50 (Cannabinoid receptor 1) | IC50 (Cytochrome P450 2A6) | Ki (Cytochrome P450 2A6) | IC50 (D(3) dopamine receptor) | IC50 [3] | Ki [3]

C[C@@H](O)[C@H](CO)NC(=O)[C@@H]1CSSC[C@H](NC(=O)[C@H](N)Cc2ccccc2)C(=O)N[C@@H](Cc2ccccc2)C(=O)N[C@H](Cc2c[nH]c3ccccc23)C(=O)N[C@@H](CCCCN)C(=O)N[C@@H]([C@@H](C)O)C(=O)N1 (H-[dF]CF[dW]KTC-{Threoninol(2S,3R)}; disulfide 2-7)
Not Active: IC50 (Caspase-1) | IC50 [1] | Ki [1] | IC50 [2] | IC50 (Cannabinoid receptor 1) | IC50 (Cytochrome P450 2A6) | Ki (Cytochrome P450 2A6) | IC50 (D(3) dopamine receptor) | IC50 [3] | Ki [3]

S=C=Nc1cccc2ccccc12 [1-NAPHTHYLISOTHIOCYANATE]
Not Active: IC50 (Caspase-1) | IC50 [1] | Ki [1] | IC50 [2] | IC50 (Cannabinoid receptor 1) | IC50 (Cytochrome P450 2A6) | Ki (Cytochrome P450 2A6) | IC50 (D(3) dopamine receptor) | IC50 [3] | Ki [3]

C[C@](O)(CS(=O)(=O)c1ccc(F)cc1)C(=O)Nc1ccc(C#N)c(C(F)(F)F)c1 [(R)-BICALUTAMIDE]
Not Active: IC50 (Caspase-1) | IC50 [1] | Ki [1] | IC50 [2] | IC50 (Cannabinoid receptor 1) | IC50 (Cytochrome P450 2A6) | Ki (Cytochrome P450 2A6) | IC50 (D(3) dopamine receptor) | IC50 [3] | Ki [3]

CCCC(=O)Nc1ccc(OCC(O)CNC(C)C)c(C(C)=O)c1 (centres undefined) [ACEBUTOLOL]
Not Active: IC50 (Caspase-1) | IC50 [1] | Ki [1] | IC50 [2] | IC50 (Cannabinoid receptor 1) | IC50 (Cytochrome P450 2A6) | Ki (Cytochrome P450 2A6) | IC50 (D(3) dopamine receptor) | IC50 [3] | Ki [3]

CC(=O)Nc1ccc(O)cc1 [ACETAMINOPHEN]
Not Active: IC50 (Caspase-1) | IC50 [1] | Ki [1] | IC50 [2] | IC50 (Cannabinoid receptor 1) | IC50 (Cytochrome P450 2A6) | Ki (Cytochrome P450 2A6) | IC50 (D(3) dopamine receptor) | IC50 [3] | Ki [3]

O=NN(CCCl)C(=O)NCCCl [CARMUSTINE]
Not Active: IC50 (Caspase-1) | IC50 [1] | Ki [1] | IC50 [2] | IC50 (Cannabinoid receptor 1) | IC50 (D(3) dopamine receptor) | IC50 [3] | Ki [3]

O=C(N[C@H](CO)[C@H](O)c1ccc([N+](=O)[O-])cc1)C(Cl)Cl [CHLORAMPHENICOL]
Not Active: IC50 (Caspase-1) | IC50 [1] | Ki [1] | IC50 [2] | IC50 (Cannabinoid receptor 1) | IC50 (D(3) dopamine receptor) | IC50 [3] | Ki [3]

C[C@@H]1C[C@@H]([C@H](O)CC2CC(=O)NC(=O)C2)C(=O)[C@@H](C)C1 [CYCLOHEXIMIDE]
Not Active: IC50 (Caspase-1) | IC50 [1] | Ki [1] | IC50 [2] | IC50 (Cannabinoid receptor 1) | IC50 (D(3) dopamine receptor) | IC50 [3] | Ki [3]

C/C=C/C[C@@H](C)[C@@H](O)[C@H]1C(=O)N[C@@H](CC)C(=O)N(C)CC(=O)N(C)[C@@H](CC(C)C)C(=O)N[C@@H](C(C)C)C(=O)N(C)[C@@H](CC(C)C)C(=O)N[C@@H](C)C(=O)N[C@H](C)C(=O)N(C)[C@@H](CC(C)C)C(=O)N(C)[C@@H](CC(C)C)C(=O)N(C)[C@@H](C(C)C)C(=O)N1C [CYCLOSPORINE]
Not Active: IC50 (Caspase-1) | IC50 [1] | Ki [1] | IC50 [2] | IC50 (Cannabinoid receptor 1) | IC50 (D(3) dopamine receptor) | IC50 [3] | Ki [3]

NC(=O)NO [HYDROXYUREA]
Not Active: IC50 (Caspase-1) | IC50 [1] | Ki [1] | IC50 [2] | IC50 (Cannabinoid receptor 1) | IC50 (D(3) dopamine receptor) | IC50 [3] | Ki [3]

COc1ccc2cc([C@H](C)C(=O)O)ccc2c1 [NAPROXEN]
Not Active: IC50 (Caspase-1) | IC50 [2] | IC50 (Cannabinoid receptor 1) | IC50 (D(3) dopamine receptor) | IC50 [3] | Ki [3]

CCn1cc(C(=O)O)c(=O)c2cc(F)c(N3CCN(C)CC3)cc21 [PEFLOXACIN]
Not Active: IC50 (Caspase-1) | IC50 [1] | Ki [1] | IC50 [2] | IC50 (Cannabinoid receptor 1) | IC50 (D(3) dopamine receptor) | IC50 [3] | Ki [3]
